Marks after values point to notes of the source that are not given here.
Experiments:
rat cardiac muscle = assay: Force and [Ca2+]i measurements in cardiac trabeculae; assay type: cell-based
Procedure: Force and [Ca^2+]i Measurements in Cardiac Trabeculae.
Rat hearts were exposed via midsternotomy after the animals were anesthetized with intraperitoneal injection of pentobarbital (100 mg/kg), and were then rapidly excised and aorta cannulated. The hearts were perfused retrogradely (˜15 ml/min) with high K^+ Krebs-Henseleit (H-K) solution equilibrated with 95% O2 and 5% CO2. Trabeculae were quickly dissected from the right ventricles of the hearts and mounted between a force transducer and a motor arm. The muscles were superfused with K-H solution at a rate of ˜10 ml/min and stimulated at 0.5 Hz. Force was measured using a force transducer system (SI, Germany) and expressed in mN/mm^2. Sarcomere length was measured by laser diffraction. Fura-2 potassium salt was microinjected iontophoretically into one cell and allowed to spread throughout the whole muscle (via gap junctions). The epifluorescence of fura-2 was measured by exciting at 380 and 340 nm. The fluorescent light was collected at 510 nm by a photomultiplier tube (R1527, Hamamatsu). [Ca^2+]i was given by (after subtraction of the autofluorescence): [Ca^2+]i=K′d(R-Rmin)/(Rmax-R), where R is the observed ratio of fluorescence (340/380), K′d is the apparent dissociation constant, Rmax is the ratio of 340 nm/380 nm at saturating [Ca^2+], and Rmin is the ratio of 340 nm/380 nm at zero [Ca^2+]. The values of K′d, Rmax, and Rmin were determined by in vivo calibrations. Tetanization of the trabecula was achieved by addition of ryanodine (1.0 μmol/L) and by increasing the stimulus rate to 10 Hz briefly (˜3 sec) to obtain steady-state force-[Ca^2+] relations. Different levels of tetanized force will be obtained by increasing [Ca^2+] in the perfusate (up to 20-25 mmol/L). The data will be fitted with the Hill equation: F=Fmax[Ca^2+]in/(K1/2n+[Ca^2+]in), where Fmax is the maximal force. K1/2 is [Ca^2+]i at half Fmax, and n is the Hill coefficient.
1-nitrosocyclohexylacetate (NCA) is a new and mechanistically unique HNO donor that has been recently synthesized.

tropomyosin (α) = target: T1, tropomyosin (α) (Rattus norvegicus, UniProt P04692); assay: Modified biotin switch assay, sites of HNO modification; assay type: biochemical
T1 construct: Rat myofibrillar preparations, as described in [7], were obtained from frozen ventricles (Pel Freez Biologicals); tissue Pel Freez Biologicals; host or cells: myofibrils from frozen rat ventricles
Procedure: (§1) Rat myofibrillar preparations, as described in [7], were obtained from frozen ventricles (Pel Freez Biologicals) minced in 20 volumes/tissue weight of 4° C. relax buffer (SRB (75 mM KCL, 10 mM imidazole pH 7.2, 2 mM MgCl2) plus 4 mM phosphocreatine, 1 mM ATP, 50 mM BDM, 1 mM benzamidine-HCL, 0.1 mM PMSF, 1 μg/ml leupeptin, 1 μg/ml pepstatin, 1% (v/v) Trixon X-100) and adjusted to 10 mM EDTA. Minced preparations were centrifuged for 8 min at 3000xg and the supernant was decanted. Resulting pellets were resuspended in 10 volumes of SRB plus 1% Triton X-100 and subjected to 6 strokes in a Duall tissue homogenizer and centrifuged as above. Pellets were gently resuspended and centrifuged as above twice more in SRB including 1% (v/v) Triton X-100, twice in SRB lacking Triton X-100 and once in K-60 buffer (60 mM KCL, 20 mM MOPS, 2 mM MgCl2 pH 7) before being resuspended in 5 volumes of K-60.
(§2) Detection of HNO modifications by Modified Biotin Switch. HNO modified thiols were detected using a modification to the standard biotin switch protocol. In brief, 100 μg of rat myofibrils/treatment were diluted to 0.5 μg/μl in HEN (250 mM HEPES pH 7.7, 1 mM EDTA and 0.1 mM neocuproine) including 0.1% (w/v) SDS and exposed to a treatment for 10 min at 37° C. which was subsequently removed by acetone precipitation. Remaining free thiols were blocked by addition of 300 μl of HEN including 2.5% (w/v) SDS and 20 mM N-ethylmaleimide (NEM), incubated for 20 min at 50° C. Excess NEM was removed by acetone precipitation. HNO and/or NO modified thiols were reduced using 5 mM DTT or 1 mM ascorbate in 150 μl of HEN including 1% (w/v) SDS and biotinylated with 0.8 mM Biotin-HPDP (Pierce) for one hour at room temperature. Excess biotin-HPDP was removed by acetone precipitation (2 volumes) and resultant pellets were carefully washed with an additional volume of acetone. Biotinylated proteins were resuspended in 1 ml of HEN including 0.1% (w/v) SDS and captured by incubation with 15 μl of washed, packed Ultralink Immobilized Streptavidin (Pierce) for one hour at room temperature. Beads were washed four times in 50 bead volumes of HEN (twice including 0.1% (w/v) SDS, twice including 600 mM NaCl) and twice with EB (20 mM HEPES pH 7.7, 100 mM NaCl, 1 mM EDTA). Captured proteins were eluted with 40 μl of EB containing 100 mM DTT, mixed with 15 μl of 4×LDS sample buffer, boiled, separated by SDS PAGE and silver stained. For MS studies, biotinylated proteins were digested overnight with trypsin (Promega) prior to capture and washed ten additional times with 5 mM ammonium bicarbonate/20% acetonitrile before being eluted in 100 μl of wash buffer including 100 mM DTT as described. Captured peptides were identified using a LTQ linear ion trap tandem mass spectrometer (ThermoFinnigan, Waltham Mass. USA) with data searched against the rat IPI primary sequence database using the sorcerer searching platform (sagen).
(§3) To investigate the modifications that underlie the difference seen in the functional effect of these two compounds we performed an analysis on the myofilament proteins, using a modified biotin-switch method, followed by mass spectrometry for identification (FIG. 3). Following treatment with HNO or control compounds, unmodified cysteines are blocked with NEM before treatment with a reducing agent and labeling the exposed cysteines with a biotin group (FIG. 3A). In this case, 5 mM DTT was used as the reducing agent because it was shown in the physiological studies to reverse the effect of the treatment. […] Tryptic or chymotryptic peptides containing the modified cysteine residues were captured and identified by LC/MS/MS. […] To parse the role of candidate sites of modification between these two effects a comparative proteomics experiment was designed where modifications specific to NCA treatment would be considered candidates for the Ca^2+ effect while sites identified in common between AS and NCA could be candidates for the force effect (FIG. 3C). […]

myosin heavy chain β = target: T2, myosin heavy chain β (Rattus norvegicus, UniProt P02564); assay: as above; assay type: biochemical
T2 construct: Rat myofibrillar preparations, as described in [7], were obtained from frozen ventricles (Pel Freez Biologicals); tissue Pel Freez Biologicals; host or cells: myofibrils from frozen rat ventricles
Procedure: as §1, §2, §3

[1] = 20˜100 μmol/L, 0.5 mmol/L [Ca2+]o
[2] = NCA 100 μmol/L, isolated cardiac muscle
[3] = in the presence of NCA, varied external Ca2+

T2 sequence (P02564 whole entry): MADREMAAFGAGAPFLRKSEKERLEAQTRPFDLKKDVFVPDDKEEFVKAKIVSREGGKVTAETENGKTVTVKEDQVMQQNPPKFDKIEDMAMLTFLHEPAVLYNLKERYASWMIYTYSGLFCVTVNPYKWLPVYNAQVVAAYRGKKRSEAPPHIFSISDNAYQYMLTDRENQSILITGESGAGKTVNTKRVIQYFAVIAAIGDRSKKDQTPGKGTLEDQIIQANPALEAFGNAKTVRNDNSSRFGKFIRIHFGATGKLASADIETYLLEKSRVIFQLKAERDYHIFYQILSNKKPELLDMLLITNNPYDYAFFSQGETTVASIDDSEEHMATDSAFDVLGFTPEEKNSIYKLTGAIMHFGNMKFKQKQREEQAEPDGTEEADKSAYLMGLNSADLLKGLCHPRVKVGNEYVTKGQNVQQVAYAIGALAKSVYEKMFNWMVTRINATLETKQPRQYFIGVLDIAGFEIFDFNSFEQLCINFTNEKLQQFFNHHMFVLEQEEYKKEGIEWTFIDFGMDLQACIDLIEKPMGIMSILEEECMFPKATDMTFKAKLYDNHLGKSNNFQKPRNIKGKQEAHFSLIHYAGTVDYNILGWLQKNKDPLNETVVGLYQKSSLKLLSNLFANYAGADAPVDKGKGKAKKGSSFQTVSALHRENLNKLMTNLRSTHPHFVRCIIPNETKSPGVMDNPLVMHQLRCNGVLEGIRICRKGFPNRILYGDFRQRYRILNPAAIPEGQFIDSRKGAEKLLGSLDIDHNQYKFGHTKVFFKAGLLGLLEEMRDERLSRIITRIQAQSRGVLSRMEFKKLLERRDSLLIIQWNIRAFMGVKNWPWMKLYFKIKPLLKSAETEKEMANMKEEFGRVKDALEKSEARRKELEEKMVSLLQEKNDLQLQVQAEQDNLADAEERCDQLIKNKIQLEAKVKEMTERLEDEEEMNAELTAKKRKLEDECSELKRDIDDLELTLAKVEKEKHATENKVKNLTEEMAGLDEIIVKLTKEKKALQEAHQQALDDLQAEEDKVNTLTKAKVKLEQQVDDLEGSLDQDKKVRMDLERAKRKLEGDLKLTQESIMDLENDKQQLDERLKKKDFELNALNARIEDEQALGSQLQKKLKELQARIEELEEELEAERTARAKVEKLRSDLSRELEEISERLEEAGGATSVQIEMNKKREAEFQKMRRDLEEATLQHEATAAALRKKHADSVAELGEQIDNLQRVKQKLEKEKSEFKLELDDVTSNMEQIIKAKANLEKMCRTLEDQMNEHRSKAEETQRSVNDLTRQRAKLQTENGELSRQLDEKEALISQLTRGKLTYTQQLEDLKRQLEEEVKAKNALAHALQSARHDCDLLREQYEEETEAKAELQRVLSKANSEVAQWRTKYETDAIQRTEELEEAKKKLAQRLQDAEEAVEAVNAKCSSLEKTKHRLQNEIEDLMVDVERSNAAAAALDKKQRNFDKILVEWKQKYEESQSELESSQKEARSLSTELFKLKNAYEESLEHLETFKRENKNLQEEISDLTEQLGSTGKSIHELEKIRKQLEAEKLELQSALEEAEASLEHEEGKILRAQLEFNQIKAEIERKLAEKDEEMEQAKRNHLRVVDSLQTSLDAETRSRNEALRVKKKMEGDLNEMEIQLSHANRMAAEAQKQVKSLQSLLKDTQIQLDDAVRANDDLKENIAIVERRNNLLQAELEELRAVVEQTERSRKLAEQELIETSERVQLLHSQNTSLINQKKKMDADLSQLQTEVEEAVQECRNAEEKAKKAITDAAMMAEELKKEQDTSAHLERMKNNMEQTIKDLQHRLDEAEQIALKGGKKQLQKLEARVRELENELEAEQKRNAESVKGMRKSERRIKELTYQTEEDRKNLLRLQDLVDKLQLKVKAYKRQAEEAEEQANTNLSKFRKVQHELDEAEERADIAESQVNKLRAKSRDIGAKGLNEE
T1 sequence (P04692 whole entry): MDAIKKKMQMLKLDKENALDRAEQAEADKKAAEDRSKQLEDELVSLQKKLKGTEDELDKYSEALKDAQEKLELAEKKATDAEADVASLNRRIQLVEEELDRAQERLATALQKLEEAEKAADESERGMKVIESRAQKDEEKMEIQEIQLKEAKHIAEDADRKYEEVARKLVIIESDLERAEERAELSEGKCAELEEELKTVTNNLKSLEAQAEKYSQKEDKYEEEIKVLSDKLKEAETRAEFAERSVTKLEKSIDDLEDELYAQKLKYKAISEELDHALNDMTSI

CC(=O)OC1(N=O)CCCCC1 [NCA, 1-nitrosocyclohexylacetate]
diastolic force (rat cardiac muscle; [1]): no changes
force development (rat cardiac muscle; [1]): increases force development in a dose dependent manner
Ca2+ transient (rat cardiac muscle; [2]): 0.39 ± 0.08 µmol/L
force (rat cardiac muscle; [2]): 32.3 ± 4.8 mN/mm²
diastolic Ca2+ (rat cardiac muscle; dose-response): increased only at high doses
amplitude of intracellular Ca2+ transients (rat cardiac muscle; [3]): not different from control
systolic force at any given external Ca2+ (rat cardiac muscle; [3]): remained significantly higher
Force-frequency relationship (rat cardiac muscle; without rising [Ca2+]i): enhanced
number of independent observations of peptide (tropomyosin (α); Cys 190, tryptic peptide CLELEEELKTVTNNLK, 25 μM NCA or 500 μM AS): 3^a
Position of modified Cys (tropomyosin (α); α-tropomyosin, Table 2): 190
number of independent observations of peptide (myosin heavy chain β; Cys 947, tryptic peptide KLEDECELKR, 25 μM NCA or 500 μM AS): 3
Position of modified Cys (myosin heavy chain β; myosin heavy chain (β), Table 2): 947(β)*

— patent US20120231482A1, “METHOD, KIT OR DIAGNOSTIC FOR THE DETECTION OF REAGENTS WHICH INDUCE ALTERED CONTRACTILITY” (THE JOHNS HOPKINS UNIVERSITY, priority 2009, published 2012)
